Test results as given in patent publication US20060069132A1, “Azolecarboxamide herbicides” (priority 2004, published 2006).

What was measured:
[1] = system: giant foxtail; assay: Test B pre-/postemergence herbicide test; assay type: in vivo, Setaria faberi
Method in brief: (§1)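 Flooded paddy rice and barnyardgrass were treated at the 2-leaf stage; upland plantings received compound either on sown seed or on 1- to 4-leaf seedlings. All were kept 13–15 days in a greenhouse and scored visually, 0–100, relative to untreated plants.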

[2] = system: rice; assay: Test B flooded paddy test; assay type: in vivo, Oryza sativa; conditions: 1000 g ai/ha, visual rating, scale 0 to 100 (0 no effect, 100 complete control), 13 to 15 days
Method in brief: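 After treating 2-leaf paddy plants or 2–18 cm postemergence plants (1 to 4 leaves) with formulated chemical, researchers kept them in a greenhouse for 13–15 days. Effects were judged visually versus controls: 0 indicates none, 100 total control.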

[3] = system: blackgrass; assay: Test B postemergence herbicide test; assay type: in vivo, Alopecurus myosuroides
Method in brief: (§2)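 Paddy species grown to the 2-leaf stage under flooding; blackgrass sprayed postemergence at 2–18 cm (1- to 4-leaf stage). Plants kept in a greenhouse for 13 to 15 days, then visually rated against controls on 0 (no effect) to 100 (complete control).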

[4] = system: lambsquarters; assay: Test B pre-/postemergence herbicide test; assay type: in vivo, Chenopodium album
Method in brief: as §1

[5] = system: barnyardgrass; assay: Test B flooded paddy test; assay type: in vivo, Echinochloa crus-galli; conditions: 1000 g ai/ha, visual rating, scale 0 to 100 (0 no effect, 100 complete control), 13 to 15 days
Method in brief: as §2

[6] = system: redroot pigweed; assay: Test A pre-/postemergence herbicide test; assay type: in vivo, Amaranthus retroflexus; conditions: for Plant response rating, Pigweed: Postemergence; for Pigweed plant response rating: Preemergence
Method in brief: (§3)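 Pre: seeded sandy loam, directed soil spray, compound in non-phytotoxic solvent + surfactant. Post: 1–2-leaf plants (2–10 cm), sprayed to runoff. Greenhouse ~10 d; visual injury vs untreated, 0–100 scale.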

[7] = system: small flower umbrella sedge; assay: Test B flooded paddy test; assay type: in vivo, Cyperus difformis; conditions: 1000 g ai/ha, visual rating, scale 0 to 100 (0 no effect, 100 complete control), 13 to 15 days
Method in brief: as §2

[8] = system: large crabgrass; assay: Test B pre-/postemergence herbicide test; assay type: in vivo, Digitaria sanguinalis
Method in brief: as §1

[9] = system: velvetleaf; assay: Test B pre-/postemergence herbicide test; assay type: in vivo, Abutilon theophrasti
Method in brief: as §1

[10] = system: giant foxtail; assay: Test A pre-/postemergence herbicide test; assay type: in vivo, Setaria faberi; conditions: for Plant response rating, Foxtail, Giant: Postemergence; for Foxtail, Giant plant response rating: Preemergence
Method in brief: as §3

[11] = system: morningglory; assay: Test A pre-/postemergence herbicide test; assay type: in vivo, Ipomoea spp.; conditions: for Plant response rating, Morningglory: Postemergence; for Morningglory plant response rating: Preemergence
Method in brief: as §3

[12] = system: large crabgrass; assay: Test A pre-/postemergence herbicide test; assay type: in vivo, Digitaria sanguinalis; conditions: for Plant response rating, Crabgrass, Large: Postemergence; for Crabgrass, Large plant response rating: Preemergence
Method in brief: as §3

[13] = system: velvetleaf; assay: Test A pre-/postemergence herbicide test; assay type: in vivo, Abutilon theophrasti; conditions: for Velvetleaf plant response rating: Preemergence
Method in brief: as §3

[14] = system: cocklebur; assay: Test B pre-/postemergence herbicide test; assay type: in vivo, Xanthium strumarium
Method in brief: (§4)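 Test chemicals in a non-phytotoxic solvent mixture with surfactant were applied preemergence to seeded species and postemergence to plants 2-18 cm tall (1- to 4-leaf stage); rice and barnyardgrass were also tested in a flooded paddy at the 2-leaf stage. Visual rating versus controls after 13-15 days in greenhouse, scale 0 (no effect) to 100 (complete control).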

[15] = system: morningglory; assay: Test B pre-/postemergence herbicide test; assay type: in vivo, Ipomoea coccinea; conditions: postemergence; 62 g ai/ha; scale 0 to 100
Method in brief: as §4

[16] = system: wild oat; assay: Test B postemergence herbicide test; assay type: in vivo, Avena fatua
Method in brief: (§5)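 Read-out: visual comparison with controls, scored 0 to 100, where 100 means complete control and 0 no effect. Formulated chemicals were applied postemergence to plants 2–18 cm tall (1- to 4-leaf), or to flooded-paddy plants at the 2-leaf stage, then held 13 to 15 days under glass.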

[17] = system: barnyardgrass; assay: Test B pre-/postemergence herbicide test; assay type: in vivo, Echinochloa crus-galli
Method in brief: as §4

[18] = system: pigweed; assay: Test B pre-/postemergence herbicide test; assay type: in vivo, Amaranthus retroflexus
Method in brief: as §1

[19] = system: Surinam grass; assay: Test B pre-/postemergence herbicide test; assay type: in vivo, Urochloa decumbens; conditions: postemergence; 62 g ai/ha; scale 0 to 100
Method in brief: as §1

[20] = system: ducksalad; assay: Test B flooded paddy test; assay type: in vivo, Heteranthera limosa; conditions: 1000 g ai/ha, visual rating, scale 0 to 100 (0 no effect, 100 complete control), 13 to 15 days
Method in brief: as §2

[21] = system: barnyardgrass; assay: Test A pre-/postemergence herbicide test; assay type: in vivo, Echinochloa crus-galli; conditions: for Plant response rating, Barnyardgrass: Postemergence; for Barnyardgrass plant response rating: Preemergence
Method in brief: as §3

[22] = system: corn; assay: Test B pre-/postemergence herbicide test; assay type: in vivo, Zea mays; conditions: postemergence; 62 g ai/ha; scale 0 to 100
Method in brief: as §1

[23] = system: wheat; assay: Test B postemergence herbicide test; assay type: in vivo, Triticum aestivum; set-up: key to Wheat plant response rating: 0 = no effect, 100 = complete control
Method in brief: as §5

[24] = Postemergence, 250 g ai/ha, scale 0 (no effect) to 100 (complete control)
[25] = postemergence, 62 g ai/ha, scale 0 to 100
[26] = 500 g ai/ha, 0 to 100 scale, 0 no effect, 100 complete control
[27] = 2000 g ai/ha, 0 to 100 scale, 0 no effect, 100 complete control
[28] = 500 g ai/ha, visual rating, 0 to 100 scale (0 no effect, 100 complete control)

In the case of `CN1Cc2c(NC(=O)c3cc(C(C)(C)C)nn3C)cccc2C1=O` [Compound 54], the “Foxtail, Giant plant response rating” value [1, 24] is reported as 0, the “Foxtail, Giant plant response rating” value [1, 25] is reported as 0 and the “Rice plant response rating” value [2] is reported as 0. The “Blackgrass plant response rating” value [3, 24] was 0, the “Blackgrass plant response rating” value [3, 25] was 0 and the “Lambsquarters plant response rating” value [4, 24] was 40. For the same molecule, the “Lambsquarters plant response rating” value [4, 25] was 40, the “Barnyardgrass plant response rating” value [5] was 0 and the “Plant response rating, Pigweed” value [6, 26] was 20. For the same molecule, the “Plant response rating, Pigweed” value [6, 27] was 20, the “Pigweed plant response rating” value [6, 28] was 10 and the “Pigweed plant response rating” value [6, 27] was 65. For the same molecule, the “Sedge, Umbrella plant response rating” value [7] was 0, the “Crabgrass, Large plant response rating” value [8, 24] was 0 and the “Crabgrass, Large plant response rating” value [8, 25] was 0. The “Velvetleaf plant response rating” value [9, 24] was 0, the “Velvetleaf plant response rating” value [9, 25] was 0 and the “Plant response rating, Foxtail, Giant” value [10, 26] was 10. For the same molecule, the “Plant response rating, Foxtail, Giant” value [10, 27] was 5, the “Foxtail, Giant plant response rating” value [10, 28] was 0 and the “Foxtail, Giant plant response rating” value [10, 27] was 15. The “Plant response rating, Morningglory” value [11, 26] was 0, the “Plant response rating, Morningglory” value [11, 27] was 10 and the “Morningglory plant response rating” value [11, 28] was 0. The “Morningglory plant response rating” value [11, 27] was 15, the “Plant response rating, Crabgrass, Large” value [12, 26] was 10 and the “Plant response rating, Crabgrass, Large” value [12, 27] was 15. For the same molecule, the “Crabgrass, Large plant response rating” value [12, 28] was 25, the “Crabgrass, Large plant response rating” value [12, 27] was 35 and the “Plant response rating, Velvetleaf” value ([13]; Postemergence, 2000 g ai/ha, 0 to 100 scale, 0 no effect, 100 complete control) was 5. For the same molecule, the “Velvetleaf plant response rating” value [13, 28] was 0, the “Velvetleaf plant response rating” value [13, 27] was 0 and the “Cocklebur plant response rating” value [14, 24] was 10. The “Cocklebur plant response rating” value [14, 25] was 10, the “Morningglory plant response rating” value [15] was 10 and the “Oat, Wild plant response rating” value [16, 24] was 0. The “Oat, Wild plant response rating” value [16, 25] was 0, the “Barnyardgrass plant response rating” value [17, 24] was 0 and the “Barnyardgrass plant response rating” value [17, 25] was 0. The “Pigweed plant response rating” value [18, 24] was 10, the “Pigweed plant response rating” value [18, 25] was 0 and the “Surinam Grass plant response rating” value [19] was 0. For the same molecule, the “Ducksalad plant response rating” value [20] was 0, the “Plant response rating, Barnyardgrass” value [21, 26] was 10 and the “Plant response rating, Barnyardgrass” value [21, 27] was 10. The “Barnyardgrass plant response rating” value [21, 28] was 5, the “Barnyardgrass plant response rating” value [21, 27] was 25 and the “Corn plant response rating” value [22] was 10. The “Wheat plant response rating” value ([23]; 250 g ai/ha, scale 0 to 100, 0 no effect, 100 complete control, preemergence) was 0, the “Wheat plant response rating” value [23, 24] was 0 and the “Wheat plant response rating” value [23, 25] was 0.
